Among the data in PMC7729398, “Unravelling the intricate cooperativity of subunit gating in P2X2 ion channels” (Scientific Reports, 2020) are EC50 values, retold here.

The structures appear in SMILES notation. Numbering of substitutions follows the chain as printed.

In one experiment the target is T1, P2X2 receptor H319K (Rattus norvegicus, UniProt P49653, H319K).
T1 construct: gene P2rx2; rat P2X2 H319K in HEK293 (Flp-In T-REx 293) cells
T1 sequence (P49653 1-472 H319K): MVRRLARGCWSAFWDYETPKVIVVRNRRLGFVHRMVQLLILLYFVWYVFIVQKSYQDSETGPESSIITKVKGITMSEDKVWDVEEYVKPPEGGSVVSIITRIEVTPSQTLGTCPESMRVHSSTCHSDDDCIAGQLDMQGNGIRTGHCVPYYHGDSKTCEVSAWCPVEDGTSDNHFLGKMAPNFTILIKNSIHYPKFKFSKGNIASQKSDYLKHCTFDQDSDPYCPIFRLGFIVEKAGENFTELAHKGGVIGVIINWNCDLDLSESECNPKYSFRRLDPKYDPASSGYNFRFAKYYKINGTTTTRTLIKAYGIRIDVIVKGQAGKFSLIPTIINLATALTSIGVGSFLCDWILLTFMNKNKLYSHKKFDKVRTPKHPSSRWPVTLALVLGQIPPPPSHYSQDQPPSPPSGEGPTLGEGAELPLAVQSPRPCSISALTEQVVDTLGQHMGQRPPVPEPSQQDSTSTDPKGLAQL
In words: whole-cell and single-channel (cell-attached) patch-clamp, fast ATP jumps, global kinetic fit. The format is cell-based.

The target of the next experiment is T2, P2X2 receptor (Rattus norvegicus, UniProt P49653).
T2 construct: gene P2rx2; wild type rat P2X2 in HEK293 (Flp-In T-REx 293) cells
T2 sequence (P49653 1-472): T1 sequence (P49653 1-472 H319K) with K319H
Described as above. The format is cell-based.

Take `Nc1ncnc2c1ncn2[C@@H]1O[C@H](COP(=O)(O)OP(=O)(O)OP(=O)(O)O)[C@@H](O)[C@H]1O` [ATP]: the EC50 at P2X2 receptor H319K was ~ 30 nM; at P2X2 receptor, 1200 nM.
